According to patent US20230293644A1, “ANTI-INFLAMMATORY PEPTIDES AND COMPOSITION COMPRISING THE SAME” (Gemvax & KAEL Co., Ltd., priority 2012, published 2023):

Experiments:
[1] = test system: TNF-α; assay: Screening of TNF-α level in PMA-differentiated THP-1 cell line after LPS; format: cell-based, human; conditions: 1 µM peptide, one hour; LPS 10 ng/ml
Description: Experiment was carried out using THP-1 cell line (American Type Culture Collection (ATCC), Manassas, VA, USA) which is human acute monocytic leukemia.
THP-1 cells were incubated to reach the number of 1 × 10^5 cells per well in a 96-well plate with RPMI 1640 medium for 24 hrs, followed by addition of 100 uM of PMA (phorbol 12-myristate 13-acetate) for the differentiation into macrophage. After differentiation of THP-1 into macrophage by PMA for a day, LPS was treated for 2 hrs and washed off. Starvation for an hour and PEP1 treatment followed.
THP-1 cell differentiated by PMA was treated with LPS (lipopolysaccharide; 10 ng/ml, Sigma) for 2 hours, followed by 2 times washes with PBS. To the cells, OPTI-MEM culture medium was added to induce cell starvation for an hour, and 1 µM of 179 peptides was taken out and incubated for an hour. After incubation, TNF-α level was measured by using the ELISA kit and the peptides which reduce the TNF-α level were screened (FIG. 24 to FIG. 46).

[2] = test system: TNF-α; assay: Screening of TNF-α inhibitory effect, LPS-stimulated PBMC-derived monocytes (Example 2); format: cell-based, human; conditions: 4 uM peptide, 2 hrs, LPS 10 ng/ml; for TNF-α inhibiting effect compared to the group treated with LPS and estrogen: estrogen 20 nM
Method in brief: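 Human PBMC-derived monocytes (1 × 10^5/well) stimulated with LPS 10 ng/ml for 2 h, starved 1 h in OPTI-MEM, then treated with 4 µM peptide for 2 h. Secreted TNF-α quantified by ELISA against untreated, estradiol (20 nM) and LPS controls.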

[3] = test system: i-N0S; assay: 2D-electrophoresis protein expression in neural stem cells: i-N0S; format: cell-based, rat; conditions: β-amyloid alone; negative control 1.0
Description: (§1) Protein expression level of PEP-1 treated group and untreated group was analyzed by 2D-electrophoresis technique and antibody microarray technique. Prepared 200ug by extracting proteome from the neural stem cells cultured in Experiment 1-1 of example 3. In addition, the group in which PEP-1 was not treated was used as the comparison group in the same condition.
(§2) 2D-electrophoresis was performed using 12% acrylamide gels. First gel electrophoresis was performed at Pl 4~10N, using a gel size of 8.5×7cm. After electrophoresis, it was dyed with Colloidal Coomassie Blue, and then compared expression by using PDQuest software to analyze each spot.
(§3) Difference in the expression levels of more than 1.5 times was identified using MALDI-TOF MS (Matrix Desoprtion/lionization Time of Flight Mass Spectromestry). Among these, proteins correlated with inflammation-related signaling, such as i-NOS and HMGB-1 were identified (Refer to Table 6). The changes in protein expression levels either increased or decreased by 1.5 times by amyloid-β protein, but it was confirmed that expression level was regulated close to that of negative control when PEP-1 was added (Refer to FIG. 57).
(§4) The Table 6 below is an analysis of expression levels of proteins associated with inflammation by 2D electrophoresis technique. […]

[4] = test system: neural stem cells; assay: Amyloid-β toxicity assessment on neural stem cells; format: cell-based, rat; conditions: 20 µM amyloid-β protein, 48 hours
Description: After removing the cortex from the head of an embryonic rat that had been pregnant for 13 days, it was cultured for a week with Basic Fibroblast Growth Factor (bFGF) to obtain the neural stem cells. To analyze the effects of the amyloid-β protein on the neural stem cells, the pre-oligomerized amyloid-β protein of concentrations 0 to 40 µM was treated on neural stem cells for 48 hours, then CCK-8 assay, BrdU, and TUNEL assay were used for cytotoxicity assessment (refer from BA Yankner et al, 1990 and KN Dahlgren et al, 2002).

[5] = test system: HSP 70; assay: 2D-electrophoresis protein expression in neural stem cells: HSP 70; format: cell-based, rat; conditions: β-amyloid alone; negative control 1.0
Description: as §1, §2, §3, §4

[6] = test system: HHGB1; assay: 2D-electrophoresis protein expression in neural stem cells: HHGB1; format: cell-based, rat; conditions: β-amyloid alone; negative control 1.0
Description: as §1, §2, §3, §4

[7] = test system: HSP 90; assay: 2D-electrophoresis protein expression in neural stem cells: HSP 90; format: cell-based, rat; conditions: β-amyloid alone; negative control 1.0
Description: as §1, §2, §3, §4

[8] = test system: MAP Kinase; assay: 2D-electrophoresis protein expression in neural stem cells: MAP Kinase; format: cell-based, rat; conditions: β-amyloid alone; negative control 1.0
Description: as §1, §2, §3, §4

[9] = test system: GAUD 153; assay: 2D-electrophoresis protein expression in neural stem cells: GAUD 153; format: cell-based, rat; conditions: β-amyloid alone; negative control 1.0
Description: as §1, §2, §3, §4

[10] = test system: Pyk2; assay: 2D-electrophoresis protein expression in neural stem cells: Pyk2; format: cell-based, rat; conditions: β-amyloid alone; negative control 1.0
Description: as §1, §2, §3, §4

[11] = test system: e-N0S; assay: 2D-electrophoresis protein expression in neural stem cells: e-N0S; format: cell-based, rat; conditions: β-amyloid alone; negative control 1.0
Description: as §1, §2, §3, §4

[12] = test system: TNF-α; assay: TNF-α ELISA, LPS-stimulated PBMC-derived monocytes (Example 1); format: cell-based, human; conditions: LPS 10 ng/ml 2 hrs, starved 1 hr, 4 uM for 2 hrs; cell culture medium
Description: PBMC (peripheral blood mononuclear cell) was separated from the blood samples (50ml) collected from healthy subjects using Ficoll-PaqueTM PLUS (GE Healthcare Life Sciences, Piscataway, NJ, USA). PBMCs were then enriched in complete RPMI 1640 medium containing 20% of human serum, followed by transferring to 100 mm polystyrene cell culture plate coated with human serum for 30 mins. […]
To see the effect of PEP-1 on TNF-α level in terms of protein expression level, ELISA (enzyme linked immunosorbent assay) was performed. […] After culturing, cell soup was collected, and the amount of TNF-α was measured using ELISA kit (R&D, Minneapolis, MN, USA) as follows:
TNF measurement uses sandwich ELISA method. […] Again, plate was washed, and avidin/biotin was added for measuring the absorbance. TNF-α level of each sample was quantified using the standard graph calculated from the absorbance of standard solution.
PBMC-derived monocytes were stimulated with endotoxin LPS (10 ng/ml) for 2 hrs, starved for 1 hr using OPTI-MEM, and then 4 uM of FITC, FITC-TAT, PEP 1-FITC and FITC-PEP 1 were treated for 2 hrs. After incubation, TNF-α level was measured with cell culture medium using ELISA.

What does the source list for “EARPALLTSRLRFIPKPDGLRPIVNM (listed as Homo sapiens) [SEQ ID NO: 73]”?
TNF-α level compared to control group treated only with LPS [1]: reduce the TNF- α level; TNF-α inhibiting effect compared to the control group treated with only LPS [2]: showed TNF-α inhibiting effect; TNF-α inhibiting effect compared to the group treated with LPS and estrogen [2]: showed TNF-α inhibiting effect

For “QHREARPALLTSRLRFIPKPDGLR (listed as Homo sapiens) [SEQ ID NO: 38]”, which “TNF-α level compared to control group treated only with LPS” value [1] is on record?
The value was “reduce the TNF- α level”.

What about the “TNF-α inhibiting effect compared to the control group treated with only LPS” value [2] of the same substance?
Its value is “showed TNF-α inhibiting effect”.

With “ARPALLTSRL (listed as Homo sapiens) [SEQ ID NO: 113]” as the substance, how does the “expression level of TNF-α compared to group treated with LPS and estrogen” value [1] read?
Its value is “reduce the expression level of TNF-α”.

And the “TNF-α inhibiting effect compared to the control group treated with only LPS” value [2]?
The value was “showed TNF-α inhibiting effect”.

What does the source list for “LTSR (listed as Homo sapiens) [SEQ ID NO: 109]”?
TNF-α level compared to control group treated only with LPS [1]: reduce the TNF- α level; TNF-α inhibiting effect compared to the control group treated with only LPS [2]: showed TNF-α inhibiting effect; TNF-α inhibiting effect compared to the group treated with LPS and estrogen [2]: showed TNF-α inhibiting effect

amyloid-β protein was tested. Which “i-N0S expression, 20ug β -amyloid treated group (fold)” value [3] did it give?
Its value is 1.9 fold.

What about the cell survival [4] of the same substance?
Its cell survival is 60%.

And the “HSP 70 expression, 20ug β -amyloid treated group (fold)” value [5]?
The value was -2.3 fold.

What about the “HHGB1 expression, 20ug β -amyloid treated group (fold)” value [6] of the same substance?
Its value is -1.5 fold.

What about the “HSP 90 expression, 20ug β -amyloid treated group (fold)” value [7] of the same substance?
Its value is -1.8 fold.

What about the “MAP Kinase expression, 20ug β -amyloid treated group (fold)” value [8] of the same substance?
The value was 2.2 fold.

And the “GAUD 153 expression, 20ug β -amyloid treated group (fold)” value [9]?
Its value is 1.6 fold.

What about the “Pyk2 expression, 20ug β -amyloid treated group (fold)” value [10] of the same substance?
The value was 2.0 fold.

What about the “e-N0S expression, 20ug β -amyloid treated group (fold)” value [11] of the same substance?
The value was 1.9 fold.

Fluorescein Isothiocyanate [FITC] was tested. Which TNF-α level [12] did it give?
Its TNF-α level is 6.2 ng/mL.
